The target of assay [1] is Human recombinant GST-PI3Kγ (Homo sapiens, UniProt P48736). As to the kind of experiment: High throughput PI3K lipid kinase assay (SPA, neomycin-coated beads). The class given is biochemical. An excerpt: a) High Throughput PI3K Lipid Kinase Assay (Binding Assay):
The efficacy of compounds of the invention in inhibiting the PI3K induced-lipid phosphorylation may be tested in the following binding assay.
The assay combines the scintillation proximity assay technology (SPA, Amersham) with the capacity of neomycin (a polycationic antibiotic) to bind phospholipids with high affinity and specificity. The Scintillation Proximity Assay is based on the properties of weakly emitting isotopes (such as ^3H, ^125I, ^33P). Coating SPA beads with neomycin allows the detection of phosphorylated lipid substrates after incubation with recombinant PI3K and radioactive ATP in the same well, by capturing the radioactive phospholipids to the SPA beads through their specific binding to neomycin.
To a 384 wells MTP containing 5 μl of the test compound of Formula (I) (solubilized in 6% DMSO; to yield a concentration of 100, 30, 10, 3, 1, 0.3, 0.1, 0.03, 0.01, 01 μM of the test compound), the following assay components are added. 1) 5 μl (58 ng) of Human recombinant GST-PI3Kγ (in Hepes 40 mM, pH 7.4, DTT 1 mM and ethylenglycol 5%) 2) 10 μl of lipid micelles and 3) 10 μl of Kinase buffer ([^33P]γ-ATP 45 μM/60 nCi, MgCl2 30 mM, DTT 1 mM, β-Glycerophosphate 1 mM, Na3VO4 100 μM, Na Cholate 0.3%, in Hepes 40 mM, pH 7.4). After incubation at room temperature for 180 minutes, with gentle agitation, the reaction is stopped by addition of 60 μl of a solution containing 100 μg of neomycin-coated PVT SPA beads in PBS containing ATP 10 mM and EDTA 5 mM. The assay is further incubated at room temperature for 60 minutes with gentle agitation to allow binding of phospholipids to neomycin-SPA beads. After precipitation of the neomycin-coated PVT SPA beads for 5 minutes at 1500×g, radioactive PtdIns(3)P is quantified by scintillation counting in a Wallac MicroBeta™ plate counter.
The values indicated in Table II below refer to the IC50 (μM) with respect to PI3Kγ, i.e. the amount necessary to achieve 50% inhibition of said target. Said values show a considerable inhibitory potency of thiazole compounds with regard to PI3Kγ.

The subject of assay [2] is PI3K induced Akt/PKB phosphorylation in Raw 264-7 macrophages. As to the kind of experiment: Cell based ELISA of Akt/PKB phosphorylation in macrophages after Complement 5a stimulation. Particulars: Mus musculus, RAW264.7, 5 min, 50 nM Complement 5a for 5 minutes, read-out: Cell Assay (P-Akt, Elisa) IC50. Here is the method:
b) Cell Based ELISA to Monitor PI3K Inhibition:
The efficacy of compounds of the invention in inhibiting the PI3K induced Akt/PKB phosphorylation may be tested in the following cell based assay.
Measurement of Akt/PKB phosphorylation in macrophages after stimulation with Complement 5a: Raw 264: Raw 264-7 macrophages (cultured in DMEM-F12 medium containing 10% Fetal Calf serum and antibiotics) are plated at 20,000 cells/well in a 96 MTP 24 h before cell stimulation. Prior to the stimulation with 50 nM of Complement 5a during 5 minutes, Cells are serum starved for 2 h, and pretreated with inhibitors for 20 minutes. After stimulation cells are fixed in 4% formaldehyde for 20 minutes and washed 3 times in PBS containing 1% Triton X-100 (PBS/Triton). Endogenous peroxidase is blocked by a 20 minutes incubation in 0.6% H2O2 and 0.1% Sodium Azide in PBS/Triton and washed 3 times in PBS/Triton. Cells are then blocked by 60 minutes incubation with 10% fetal calf serum in PBS/Triton. Next, phosphorylated Akt/PKB is detected by an overnight incubation at 4° C. with primary antibody (anti phospho Serine 473 Akt IHC, Cell Signaling) diluted 800-fold in PBS/Triton, containing 5% bovine serum albumin (BSA). After 3 washes in PBS/Triton, cells are incubated for 60 minutes with a peroxidase conjugated goat-anti-rabbit secondary antibody (1/400 dilution in PBS/Triton, containing 5% BSA), washed 3 times in PBS/Triton, and 2 times in PBS and further incubated in 100 μl of luminescent substrate reagent solution (Pierce) for 2 minutes, followed by the reading (1 s/well).
The values indicated in Table III below reflect the percentage of inhibition of AKT phoshorylation as compared to basal level. Said values show a clear effect of the thiazole compounds on the activation of AKT phosphorylation in macrophages.
A general note: In an ELISA, binding on a coated surface is turned into a signal by an enzyme label.

The test system of the next assay is Neutrophil recruitment. As to the kind of experiment: Thioglycollate-induced peritoneal cavity cell recruitment model, neutrophils. The class given is in vivo, C3H mice. The following applies: 10 mg/kg orally, lavage 4 h after thioglycollate. The protocol:
(§1) Thioglycollate-Induced Pertioneal Cavity Cell Recruitment Model
(§2) The in vivo efficacy of compounds of the invention in inhibiting the migration of leukocytes upon intraperitoneal challenge of thioglycollate may be tested with the following assay.
(§3) 8-10 weeks old female C3H mice are fasted during 18 hours. 15 minutes prior the intraperitoneal injection of thioglycollate (1.5%, 40 ml/kg), the mice are treated orally with Thiazoles of Formula (I). Control mice receive CMC/Tween as vehicle (10 ml/kg). The mice are then sacrificed by CO2 inhalation and the peritoneal cavity is washed two times with 5 ml of ice-cold PBS/1 mM EDTA. The lavages are done 4 hours or 48 hours after thioglycollate challenge to evaluate neutrophils or macrophages recruitment, respectively. The white blood cells (neutrophils, lymphocytes or macrophages) are counted using a Beckman Coulter® A ^cT 5diff™. Dexamethasone is used as reference drug.

In a further assay the test system is Macrophage recruitment. As to the kind of experiment: Thioglycollate-induced peritoneal cavity cell recruitment model, macrophages. The following applies: 10 mg/kg orally, lavage 48 h after thioglycollate. The class given is in vivo, C3H mice. The protocol: as §1, §2, §3
In assay [3] the test system is Collagen-induced arthritis. Put plainly: Collagen-induced arthritis, CIA (mouse). The format is in vivo, DBA/1 mice. Particulars: twice a day, 7 days.

2 compounds from patent US8399497B2, “Thiazole derivatives and use thereof” (Merck Serono SA, priority 2005, dated 2013) can be followed below.

Read-outs that look alike come from different tables or passages of the source.

Chain of Human recombinant GST-PI3Kγ (P48736 whole entry): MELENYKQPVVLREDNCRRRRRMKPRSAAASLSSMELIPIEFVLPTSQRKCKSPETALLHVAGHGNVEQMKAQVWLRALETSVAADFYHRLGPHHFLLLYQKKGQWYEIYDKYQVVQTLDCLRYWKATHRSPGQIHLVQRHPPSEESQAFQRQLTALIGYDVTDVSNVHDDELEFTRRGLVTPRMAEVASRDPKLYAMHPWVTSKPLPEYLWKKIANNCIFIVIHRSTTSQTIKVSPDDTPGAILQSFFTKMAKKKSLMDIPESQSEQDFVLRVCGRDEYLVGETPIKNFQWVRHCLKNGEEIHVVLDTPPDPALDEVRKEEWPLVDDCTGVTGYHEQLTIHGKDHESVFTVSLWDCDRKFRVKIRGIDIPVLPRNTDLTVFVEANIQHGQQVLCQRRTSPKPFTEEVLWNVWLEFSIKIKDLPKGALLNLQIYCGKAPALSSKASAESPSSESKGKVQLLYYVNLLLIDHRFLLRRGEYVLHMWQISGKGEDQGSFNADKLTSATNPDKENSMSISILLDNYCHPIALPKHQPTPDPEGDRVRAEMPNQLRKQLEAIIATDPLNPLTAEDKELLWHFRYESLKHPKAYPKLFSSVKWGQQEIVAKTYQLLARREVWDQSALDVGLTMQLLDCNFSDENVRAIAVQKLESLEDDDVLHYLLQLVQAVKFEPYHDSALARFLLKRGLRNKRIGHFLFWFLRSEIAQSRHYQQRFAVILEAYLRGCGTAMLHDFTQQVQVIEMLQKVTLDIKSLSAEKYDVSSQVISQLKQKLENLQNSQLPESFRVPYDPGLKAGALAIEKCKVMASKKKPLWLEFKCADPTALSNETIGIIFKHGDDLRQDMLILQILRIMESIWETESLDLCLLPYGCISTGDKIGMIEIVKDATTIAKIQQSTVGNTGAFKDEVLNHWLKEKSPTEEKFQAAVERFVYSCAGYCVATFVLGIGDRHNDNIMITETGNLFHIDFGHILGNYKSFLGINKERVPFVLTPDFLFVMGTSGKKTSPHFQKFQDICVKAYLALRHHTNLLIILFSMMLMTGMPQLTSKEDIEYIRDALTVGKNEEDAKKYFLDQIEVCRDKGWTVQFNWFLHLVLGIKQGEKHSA

Regarding `CC(=O)Nc1nc(C)c(-c2csc(S(=O)(=O)N3CCC(O)CC3)c2)s1` [Example 39, N-(5-{5-[(4-hydroxypiperidin-1-yl)sulfonyl]-3-thienyl}-4-methyl-1,3-thiazol-2-yl)acetamide], the figures for the 50% inhibitory concentration (IC50) in assay [1], in assay [2] and in assay [2] (re-testing) were 14 nM, 50 nM and 320 nM, respectively. In addition, the “% inhibition of Neutrophil recruitment at 10 mg/kg after 4 h” value with Neutrophil recruitment stood at 48%. Besides, in the assay on Macrophage recruitment, the “% inhibition of Macrophage recruitment at 10 mg/kg after 48 h” value was 43%. In addition, the “Reduction of total clinical score [%]” value worked out at 30% in assay [3] (10 mg/kg orally), 50% in assay [3] (30 mg/kg orally) and 75% in assay [3] (60 mg/kg orally).

For `CC(=O)Nc1nc(C)c(-c2csc(S(=O)(=O)N3CCOCC3)c2)s1` [Example 46, N-{4-methyl-5-[5-(morpholin-4-ylsulfonyl)-3-thienyl]-1,3-thiazol-2-yl}acetamide], the results for the IC50 in assay [1] and in assay [2] were 27 nM and over 30000 nM, respectively. In addition, in the assay on Neutrophil recruitment, the “% inhibition of Neutrophil recruitment at 10 mg/kg after 4 h” value came to 36%.

As usually defined, the IC50 is the midpoint of a concentration-inhibition curve.
